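Test compounds were applied to cells in 96-well plates for 48 hours at 5 doses. GI50 = concentration required for 50% inhibition of growth. TGI marks complete inhibition of growth.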 Some results are limits rather than exact numbers.

18 molecules from PubChem BioAssay (NCI) can be followed below.

One assay has as its system ACHN renal. The assay can be described thus: NCI-60 cell line screen, 48 h.
For `CN1CCN(CCCn2c(=O)c3sc4ncccc4c3n3nnc(-c4ccccc4)c23)CC1`, the GI50 was 8.2 µM and the TGI is 15.1 µM.

`NC1(C(=O)OCc2ccccc2)CCCC1`: the TGI came out at 34.1 µM.

In the case of `O=C(/C=C/c1ccc(Cl)cc1)c1ccc(Nc2ccnc3cc(Cl)ccc23)cc1`, the GI50 is above 100 µM and the TGI is above 100 µM.

With `CCCCCCCC(=O)SCC/C=C/[C@@H]1CC(=O)NCc2cc(ccn2)C2=N[C@@](C)(CS2)C(=O)N[C@@H](C(C)C)C(=O)O1`, the GI50 is 0.0433 µM and the TGI amounted to 0.434 µM.

On to `CSc1nc(NC2OCC(OC(C)=O)C(OC(C)=O)C2OC(C)=O)c(N=CC=Nc2c(NC3OCC(OC(C)=O)C(OC(C)=O)C3OC(C)=O)nc(SC)[nH]c2=O)c(=O)[nH]1` (centres undefined), for which the TGI was above 88.7 µM.

`N#CC(C#N)=CNC(N)=S` displayed a TGI above 100 µM.

As for `O=C1OC(O)[C@@H]2[C@H]1[C@H]1CC[C@@H]2O1` (some centres undefined), the GI50 was above 89.6 µM and the TGI is above 100 µM.

Take `O=C1c2cc3c(cc2-c2c1c1ccc(F)cc1c(=O)n2CCCNCCO)OCO3`: the GI50 is 0.0247 µM and the TGI is 0.104 µM.

Molecule `COC(=O)C1=C(C)NC(C)=C(C(=O)OCCCN2CCC(c3ccccc3)(c3ccccc3)CC2)C1c1cccc([N+](=O)[O-])c1` (centres undefined) showed a TGI of 3.05 µM.

The molecule `N=Nc1c(OC(=O)Nc2cccc(Cl)c2)[nH]c2ccccc12` displayed a TGI of 20.3 µM.

On to `CC1(C)C2CCC(=O)C1CC2` (centres undefined), for which the TGI is above 100 µM.

Turning to `Fc1cc2[nH]ncc2c2c3c(c(-c4cn[nH]c4)nc12)CCCC3`, the GI50 was 0.327 µM and the TGI is 10.3 µM.

Turning to `CCN1CCN(c2nc(C)cc(N(CCNc3ccnc4cc(Cl)ccc34)Cc3ccc4c(c3)OCO4)n2)CC1`, the GI50 was 2.26 µM and the TGI worked out at 5.26 µM.

As for `CCN(CC)c1ccc(-c2cc(-c3cc(OC)c(OC)c(OC)c3)nc(N3CCOCC3)c2C#N)cc1`, the GI50 is 1.22 µM and the TGI was above 100 µM.

With `C=C(Br)C(C)(Br)CCC(Br)C(C)(C)Cl` (centres undefined), the TGI was 35.6 µM.

On to `O=C(CCc1nnc2sc(-c3ccc(Cl)cc3Cl)nn12)c1nc2ncccc2[nH]1`, for which the GI50 was 1.54 µM and the TGI was determined as 2.91 µM.

As to `COc1ccc(-c2nnc(COc3ccc(C(=O)/C=C/c4ccco4)cc3)o2)cc1`, the GI50 was 2.12 µM and the TGI worked out at 5.03 µM.

Take `OCc1ccc(-c2ccc(-c3ccc(CO)s3)o2)s1`: the TGI was above 94.1 µM.

In a further assay the test system is COLO 205 colon. The assay can be described thus: NCI-60 cell line screen, 48 h.
With `CN1CCN(CCCn2c(=O)c3sc4ncccc4c3n3nnc(-c4ccccc4)c23)CC1`, the GI50 was 7.35 µM and the TGI came to 14.6 µM.

Molecule `NC1(C(=O)OCc2ccccc2)CCCC1` came in with a TGI of 76.7 µM.

`O=C(/C=C/c1ccc(Cl)cc1)c1ccc(Nc2ccnc3cc(Cl)ccc23)cc1`: the GI50 is 31.9 µM and the TGI is above 100 µM.

Take `CCCCCCCC(=O)SCC/C=C/[C@@H]1CC(=O)NCc2cc(ccn2)C2=N[C@@](C)(CS2)C(=O)N[C@@H](C(C)C)C(=O)O1`: the GI50 was 0.0513 µM and the TGI was 0.147 µM.

The molecule `CSc1nc(NC2OCC(OC(C)=O)C(OC(C)=O)C2OC(C)=O)c(N=CC=Nc2c(NC3OCC(OC(C)=O)C(OC(C)=O)C3OC(C)=O)nc(SC)[nH]c2=O)c(=O)[nH]1` (centres undefined) gave a TGI above 100 µM.

Turning to `N#CC(C#N)=CNC(N)=S`, the TGI is above 100 µM.

Regarding `O=C1OC(O)[C@@H]2[C@H]1[C@H]1CC[C@@H]2O1` (some centres undefined), the GI50 is 1.21 µM and the TGI stood at 6.31 µM.

On to `O=C1c2cc3c(cc2-c2c1c1ccc(F)cc1c(=O)n2CCCNCCO)OCO3`, for which the GI50 was 0.0423 µM and the TGI was determined as 0.81 µM.

As for `COC(=O)C1=C(C)NC(C)=C(C(=O)OCCCN2CCC(c3ccccc3)(c3ccccc3)CC2)C1c1cccc([N+](=O)[O-])c1` (centres undefined), the TGI was 3.08 µM.

Molecule `N=Nc1c(OC(=O)Nc2cccc(Cl)c2)[nH]c2ccccc12` returned a TGI of 19.4 µM.

Consider `CC1(C)C2CCC(=O)C1CC2` (centres undefined), for which the TGI is above 100 µM.

Consider `Fc1cc2[nH]ncc2c2c3c(c(-c4cn[nH]c4)nc12)CCCC3`, for which the GI50 was 0.658 µM and the TGI was 2.62 µM.

Regarding `CCN1CCN(c2nc(C)cc(N(CCNc3ccnc4cc(Cl)ccc34)Cc3ccc4c(c3)OCO4)n2)CC1`, the GI50 was 1.63 µM and the TGI came out at 3.27 µM.

On to `CCN(CC)c1ccc(-c2cc(-c3cc(OC)c(OC)c(OC)c3)nc(N3CCOCC3)c2C#N)cc1`, for which the GI50 was 0.439 µM and the TGI turned out to be 7.48 µM.

Molecule `C=C(Br)C(C)(Br)CCC(Br)C(C)(C)Cl` (centres undefined) gave a TGI of 33.8 µM.

As to `O=C(CCc1nnc2sc(-c3ccc(Cl)cc3Cl)nn12)c1nc2ncccc2[nH]1`, the GI50 is 1.93 µM and the TGI came to 4.2 µM.

Turning to `COc1ccc(-c2nnc(COc3ccc(C(=O)/C=C/c4ccco4)cc3)o2)cc1`, the GI50 was 2.23 µM and the TGI was found to be 4.32 µM.

In turn, `OCc1ccc(-c2ccc(-c3ccc(CO)s3)o2)s1` returned a TGI of 3.01 µM.

In another assay the test system is HCC-2998 colon. The assay is described as follows: NCI-60 cell line screen, 48 h.
In the case of `CN1CCN(CCCn2c(=O)c3sc4ncccc4c3n3nnc(-c4ccccc4)c23)CC1`, the GI50 was 6.77 µM and the TGI turned out to be 13.4 µM.

`NC1(C(=O)OCc2ccccc2)CCCC1` registered a TGI of 76.7 µM.

Regarding `O=C(/C=C/c1ccc(Cl)cc1)c1ccc(Nc2ccnc3cc(Cl)ccc23)cc1`, the GI50 is above 80.5 µM and the TGI was above 100 µM.

Take `CCCCCCCC(=O)SCC/C=C/[C@@H]1CC(=O)NCc2cc(ccn2)C2=N[C@@](C)(CS2)C(=O)N[C@@H](C(C)C)C(=O)O1`: the GI50 was 0.0256 µM and the TGI was 0.245 µM.

Consider `CSc1nc(NC2OCC(OC(C)=O)C(OC(C)=O)C2OC(C)=O)c(N=CC=Nc2c(NC3OCC(OC(C)=O)C(OC(C)=O)C3OC(C)=O)nc(SC)[nH]c2=O)c(=O)[nH]1` (centres undefined), for which the TGI was above 100 µM.

`N#CC(C#N)=CNC(N)=S` returned a TGI above 100 µM.

Turning to `O=C1OC(O)[C@@H]2[C@H]1[C@H]1CC[C@@H]2O1` (some centres undefined), the GI50 is 2.19 µM and the TGI amounted to 4.41 µM.

Take `O=C1c2cc3c(cc2-c2c1c1ccc(F)cc1c(=O)n2CCCNCCO)OCO3`: the GI50 was 0.0537 µM and the TGI stood at 0.272 µM.
